pIC50: −log10 of the molar value.

The target in the experiment is T1, hROMK (hKir1.1) (Homo sapiens, UniProt P48048).
T1 construct: expressed in transfected cells
T1 sequence (P48048 1-391): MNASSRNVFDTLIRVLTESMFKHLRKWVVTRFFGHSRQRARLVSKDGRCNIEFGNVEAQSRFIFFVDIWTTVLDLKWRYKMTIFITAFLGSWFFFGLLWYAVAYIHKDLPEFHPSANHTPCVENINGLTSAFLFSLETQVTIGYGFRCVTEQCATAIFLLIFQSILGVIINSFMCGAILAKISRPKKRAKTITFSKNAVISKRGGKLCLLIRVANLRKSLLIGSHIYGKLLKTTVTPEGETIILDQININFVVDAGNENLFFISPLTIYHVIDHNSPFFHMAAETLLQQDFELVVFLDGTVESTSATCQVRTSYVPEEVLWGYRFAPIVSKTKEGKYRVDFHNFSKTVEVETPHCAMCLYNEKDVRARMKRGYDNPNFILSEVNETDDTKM
Kind of experiment: Thallium Flux Assay (ROMK channel functional thallium flux, FLIPR-Tetra). The format is cell-based. To be noted: HEK293 cells stably expressing hROMK (hKir1.1); 30 min compound incubation. In outline: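 HEK293 cells stably expressing hKir1.1, loaded with FluxOR dye for 90 min, then preincubated with compound for 30 min at ambient temperature with 0.3 mM ouabain and probenecid. Stimulated with 3 mM thallium/0.3 mM potassium (final); fluorescence read ~10 min. Normalized to 3 μM reference ROMK inhibitor; IC50 from inhibition of flux.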
Consider `CC1=C(N2CCC3(CCN(C[C@H](O)c4ccc(-n5cnnn5)nn4)CC3F)C2=O)COC1=O` (single isomer, unassigned) [Example 183], for which the pIC50 was 7.10.
As for `COC1CN(C2=C(C)C(=O)OC2)C(=O)C12CC1CCC(C2)N1C[C@@H](O)c1ccc(-n2cnnn2)nc1` (single isomer, unassigned) [Example 109], the figure is 7.22; as for `CC1(C)CC2(CCN(C[C@@H](O)c3ccc(-n4cnnn4)nn3)CC2)C(=O)N1C1=CC(=O)OC1` [Example 190, 8-{(2R)-2-hydroxy-2-[6-(1H-tetrazol-1-yl)pyridazin-3-yl]ethyl}-3,3-dimethyl-1-oxo-2-(5-oxo-2,5-dihydrofuran-3-yl)-2-aza-8-azoniaspiro[4.5]decane], 7.30; as for `CC1CC2(CC3CCC(C2)N3C[C@H](O)c2cnc(-n3cnnn3)cn2)C(=O)N1C1=CC(=O)OC1` (single isomer, unassigned) [Example 91], 7.52.
On to `Cc1nc(-n2cnnn2)ccc1[C@@H](O)CN1CCC2(CC1)CCN(C1=CC(=O)OC1)C2=O` [Example 3, 8-{(2R)-2-hydroxy-2-[2-methyl-6-(1H-tetrazol-1-yl)pyridin-3-yl]ethyl}-1-oxo-2-(5-oxo-2,5-dihydrofuran-3-yl)-2-aza-8-azoniaspiro[4.5]decane], for which the negative logarithm of the IC50 (pIC50) is 7.70.
As for `CC1=CC2(CCN(C[C@H](O)c3ccc(-n4cnnn4)nc3)CC2)C(=O)N1C1=CC(=O)OC1` [Example 174, 8-{(2R)-2-hydroxy-2-[6-(1H-tetrazol-1-yl)pyridin-3-yl]ethyl}-3-methyl-2-(5-oxo-2,5-dihydrofuran-3-yl)-2,8-diazaspiro[4.5]dec-3-en-1-one], the figure is 7.70; as for `CC1=C(N2CCC3(CCN(C[C@H](O)c4cc(-n5cnnn5)ccn4)CC3)C2=O)COC1=O` [Example 72, 8-{(2S)-2-hydroxy-2-[4-(1H-tetrazol-1-yl)pyridin-2-yl]ethyl}-2-(4-methyl-5-oxo-2,5-dihydrofuran-3-yl)-1-oxo-2-aza-8-azoniaspiro[4.5]decane], 7.40; as for `CC1=C(N2C(=O)C3(CCN(C[C@H](O)c4ccc(-n5cnnn5)nn4)CC3)CC2C)COC1=O` (single isomer, unassigned) [Example 125], 7.22.
Regarding `Cc1nc(-n2cnnn2)ccc1[C@@H](O)CN1C2CCC1CC1(CCN(C3=CC(=O)OC3)C1=O)C2` (stereo partly drawn) [Example 43, (1R,5R)-8-{(2R)-2-hydroxy-2-[2-methyl-6-(1H-tetrazol-1-yl)pyridin-3-yl]ethyl}-2′-oxo-1′-(5-oxo-2,5-dihydrofuran-3-yl)spiro[8-azoniabicyclo[3.2.1]octane-3,3′-pyrrolidine]], the pIC50 is 8.00.
`CC1=C(N2CCC3(CC4CCC(C3)N4C[C@@H](O)c3cnc(-n4cnnn4)cn3)C2=O)COC1=O` (stereo partly drawn) [Example 49, (1R,5R)-8-{(2R)-2-hydroxy-2-[5-(1H-tetrazol-1-yl)pyrazin-2-yl]ethyl}-1′-(4-methyl-5-oxo-2,5-dihydrofuran-3-yl)-2′-oxospiro[8-azoniabicyclo[3.2.1]octane-3,3′-pyrrolidine]] showed a negative-log IC50 (pIC50) of 7.05.
As for `C[C@H]1CC2(CCN(CCc3cnc(-n4cnnn4)cn3)CC2)C(=O)N1C1=CC(=O)OC1` [Example 246, 3(S)-methyl-1-oxo-2-(5-oxo-2,5-dihydrofuran-3-yl)-8-{2-[5-(1H-tetrazol-1-yl)pyrazin-2-yl]ethyl}-2-aza-8-azoniaspiro[4.5]decane], the figure is 7.70; as for `COC1CN(CCc2ccc(-n3cnnn3)nn2)CCC12CCN(C1=C(C)C(=O)OC1)C2=O` (single isomer, unassigned) [Example 258, 6-methoxy-2-(4-methyl-5-oxo-2,5-dihydrofuran-3-yl)-8-{2-[6-(1H-tetrazol-1-yl)pyridazin-3-yl]ethyl}-2,8-diazaspiro[4.5]decan-1-one], 6.92.
As for `CC1=C(N2CCC3(CCN(C[C@H](O)c4ccc(-n5cnnn5)nn4)CC3F)C2=O)COC1=O` (single isomer, unassigned) [Example 196], the figure is 7.40; as for `O=C1C=C(N2C=CC3(CCN(C[C@H](O)c4cnc(-n5cnnn5)cn4)CC3)C2=O)CO1` [Example 152, 8-{(2S)-2-hydroxy-2-[5-(1H-tetrazol-1-yl)pyrazin-2-yl]ethyl}-1-oxo-2-(5-oxo-2,5-dihydrofuran-3-yl)-2-aza-8-azoniaspiro[4.5]dec-3-ene], 6.57.
As for `CC1(C)CC2(CCN(C[C@H](O)c3cnc(-n4cnnn4)cn3)CC2)C(=O)N1C1=CC(=O)OC1` [Example 164, 8-{(2S)-2-hydroxy-2-[5-(1H-tetrazol-1-yl)pyrazin-2-yl]ethyl}-3,3-dimethyl-1-oxo-2-(5-oxo-2,5-dihydrofuran-3-yl)-2-aza-8-azoniaspiro[4.5]decane], the pIC50 is 7.40.
Compound `CC1=C(N2CCC3(CCN(CCc4nnc(-n5cnnn5)cc4C)CC3)C2=O)COC1=O` [Example 236, 2-(4-methyl-5-oxo-2,5-dihydrofuran-3-yl)-8-{2-[4-methyl-6-(1H-tetrazol-1-yl)pyridazin-3-yl]ethyl}-1-oxo-2-aza-8-azoniaspiro[4.5]decane] had a negative-log IC50 (pIC50) of 8.40.
As for `O=C1C=C(N2C(=O)C3(CCN(C[C@H](O)c4ccc(-n5cnnn5)nn4)CC3)CC2C2CC2)CO1` (mixture of isomers) [Example 211, 3-cyclopropyl-8-{(2S)-2-hydroxy-2-[6-(1H-tetrazol-1-yl)pyridazin-3-yl]ethyl}-2-(5-oxo-2,5-dihydrofuran-3-yl)-2,8-diazaspiro[4.5]decan-1-one], the figure is 7.40; as for `COC1CN(C[C@@H](O)c2cnc(-n3cnnn3)cn2)CCC12CCN(C1=C(C)C(=O)OC1)C2=O` (single isomer, unassigned) [Example 179], 6.48; as for `CC1=C(N2C=CC3(CCN(CCc4nnc(-n5cnnn5)cc4C)CC3)C2=O)COC1=O` [Example 248, 2-(4-methyl-5-oxo-2,5-dihydrofuran-3-yl)-8-{2-[4-methyl-6-(1H-tetrazol-1-yl)pyridazin-3-yl]ethyl}-1-oxo-2-aza-8-azoniaspiro[4.5]dec-3-ene], 7.70.
As for `CC1=C(N2CCC3(CC4CCC(C3)N4C[C@@H](O)c3ccc(-n4cnnn4)nn3)C2=O)COC1=O` (stereo partly drawn) [Example 53, (1R,5R)-8-{(2R)-2-hydroxy-2-[6-(1H-tetrazol-1-yl)pyridazin-3-yl]ethyl}-1′-(4-methyl-5-oxo-2,5-dihydrofuran-3-yl)-2′-oxospiro[8-azoniabicyclo[3.2.1]octane-3,3′-pyrrolidine]], the figure is 8.00.
`CC1=C(N2CC(O)C3(CCN(C[C@H](O)c4ccc(-n5cnnn5)nc4)CC3)C2=O)COC1=O` (single isomer, unassigned) [Example 111] showed a pIC50 of 7.05.
The compound `C[C@@H]1CC2(CCN(C[C@H](O)c3cnc(-n4cnnn4)cn3)CC2)C(=O)N1C1=CC(=O)OC1` [Example 79, (3R)-8-{(2S)-2-hydroxy-2-[5-(1H-tetrazol-1-yl)pyrazin-2-yl]ethyl}-3-methyl-1-oxo-2-(5-oxo-2,5-dihydrofuran-3-yl)-2-aza-8-azoniaspiro[4.5]decane] gave a pIC50 of 7.00. The pIC50 values of the last two compounds are within 0.2 log units of each other.
As to `O=C1C=C(N2C(=O)C3(CCN(C[C@H](O)c4cnc(-n5cnnn5)cn4)CC3)CC23CC3)CO1` [Example 167, 8-{(2S)-2-hydroxy-2-[5-(1H-tetrazol-1-yl)pyrazin-2-yl]ethyl}-12-(5-oxo-2,5-dihydrofuran-3-yl)-8,12-diazadispiro[2.1.5.2]dodecan-11-one], the pIC50 was 8.00.
As for `CO[C@@H](CN1CCC2(CC1)CCN(C1=C(C)C(=O)OC1)C2=O)c1cnc(-n2cnnn2)cn1` [Example 283], the figure is 7.22.
`CC1=C(N2C=CC3(CCN([C@H](C)Cc4nnc(-n5cnnn5)cc4C)CC3)C2=O)COC1=O` (single isomer, unassigned) [Example 275] had a negative logarithm of the IC50 (pIC50) of 8.40.
As for `Cc1nc(-n2cnnn2)cnc1C(O)CN1CCC2(CC1)C[C@H](C)N(C1=CC(=O)OC1)C2=O` (mixture of isomers) [Example 168, (3S)-8-{2-hydroxy-2-[3-methyl-5-(1H-tetrazol-1-yl)pyrazin-2-yl]ethyl}-3-methyl-2-(5-oxo-2,5-dihydrofuran-3-yl)-2,8-diazaspiro[4.5]decan-1-one], the figure is 8.00; as for `CC1=C(N2CCC3(CCN(C[C@@H](O)c4ccc(-n5cnnn5)cc4C)CC3)C2=O)COC1=O` [Example 39, 8-{(2S)-2-hydroxy-2-[2-methyl-4-(1H-tetrazol-1-yl)phenyl]ethyl}-2-(4-methyl-5-oxo-2,5-dihydrofuran-3-yl)-1-oxo-2-aza-8-azoniaspiro[4.5]decane], 8.00; as for `CC1=C(N2C=CC3(CCN(C[C@H](O)c4ccc(-n5cnnn5)nc4)CC3)C2=O)COC1=O` [Example 116, 8-{(2R)-2-hydroxy-2-[6-(1H-tetrazol-1-yl)pyridin-3-yl]ethyl}-2-(4-methyl-5-oxo-2,5-dihydrofuran-3-yl)-1-oxo-2-aza-8-azoniaspiro[4.5]dec-3-ene], 7.52.
As for `COC1CN(CCc2ccc(-n3cnnn3)nn2)CCC12CCN(C1=C(C)C(=O)OC1)C2=O` (single isomer, unassigned) [Example 257, 6-methoxy-2-(4-methyl-5-oxo-2,5-dihydrofuran-3-yl)-8-{2-[6-(1H-tetrazol-1-yl)pyridazin-3-yl]ethyl}-2,8-diazaspiro[4.5]decan-1-one], the figure is 7.00.

Source of the values: US9765074B2, “Inhibitors of the renal outer medullary potassium channel” (Merck Sharp & Dohme Corp., priority 2013, dated 2017).
